How the values were obtained:
Assay type in all cases: cell-based, human
[1] = test system: H9-EP cells; test: EP cell maintenance: cell number / cell growth under various media conditions; conditions: for proliferation of EP cells (total cell number after 7-day expansion): FIG. 4B
Experimental: (§1) FIG. 4. Cytokine Requirements and Critical Signaling Pathways for EP Cell Maintenance and Differentiation. […] In each condition, one of the four cytokines was omitted or inhibitors of signaling pathways were added. The H9-EP cell line was grown for 1 week in optimal EP Basic Media (BASIC) or in the absence of BMP4, or bFGF or VEGF. (A) Flow cytometric analyses of SOX17 versus PDX1, or SOX17 versus FOXA1 are shown. […] (C-D) To evaluate the role of TGF signaling in EP cell maintenance and differentiation, the small molecule inhibitor SB431542 was added to EP media. (C) H9-EP cells were cultured in normal EP media (BASIC) or in EP media supplemented with SB431542 (6 M) either in the presence (+SB) or the absence of BMP4 (−BMP+SB). Cells were harvested at day 6. Flow cytometric analyses of SOX17 versus FOXA1 are shown. (D) H9-EP cells were cultured in the presence (SB, red circles) or the absence (BASIC, blue squares) of SB431542 for 3 passages and cell growth analyzed by cell counts at each passage. […] Cells were harvested at day 14 of differentiation, and were compared to those derived from SB-untreated group (BASIC). Flow cytometric analyses of C-peptide versus Glucagon are shown.
Cells were fed every two days, and were split at 1×10^6/58 cm^2 every 6 days by trypsinization. The small molecule inhibitors PD0325901 (Sebolt-Leopold et al., 2004; Ying et al., 2008), PD173074 (Mohammadi et al., 1998) and SB431542 (Laping et al, 2002; Inman et al., 2002) were purchased from Cayman Chemicals and Stemgent, respectively.

[2] = test system: H9-EP cells; test: Flow cytometric analysis of SOX17 / PDX1 / FOXA1 in EP cells under various media conditions; set-up: SOX17 expression in EP cells: dose or concentration left out as unconfirmed
Experimental: as §1
Single cell suspensions were obtained by dissociating day 5 transient endoderm, EP cell cultures, or EP cell differentiation cultures with 0.25% trypsin at 37° C. for 3-5 minutes. Cell surface antigen staining was performed in IMDM with 10% fetal calf serum. For intracellular staining, cells were fixed with 1.6% paraformaldehyde (Electron Microscopy Sciences) at 37 C for 20 minutes, and then washed twice with PBS+1% BSA. The fixed cells were permeabilized and stained in 1× Permeabilization Wash Buffer (BioLegend, 421002). The stained cells were analyzed with the BD FACS Canto II Flow Cytometer (BD Biosciences), and the data was analyzed using the Flowjo software (TreeStar). The sources and concentrations of primary, secondary antibodies and isotype controls are listed below.

[3] = test system: H9-EP and iPS2-EP cells; test: Pancreatic differentiation of EP cells after culture with SB431542; conditions: EP cells cultured with SB431542 for 5 days, then differentiated, day 14, FIG. 4E
Experimental: FIG. 4. Cytokine Requirements and Critical Signaling Pathways for EP Cell Maintenance and Differentiation. […] In each condition, one of the four cytokines was omitted or inhibitors of signaling pathways were added. The H9-EP cell line was grown for 1 week in optimal EP Basic Media (BASIC) or in the absence of BMP4, or bFGF or VEGF. (A) Flow cytometric analyses of SOX17 versus PDX1, or SOX17 versus FOXA1 are shown. […] (C-D) To evaluate the role of TGF signaling in EP cell maintenance and differentiation, the small molecule inhibitor SB431542 was added to EP media. […] Cells were harvested at day 6. Flow cytometric analyses of SOX17 versus FOXA1 are shown. […] Cells were harvested at day 14 of differentiation, and were compared to those derived from SB-untreated group (BASIC). Flow cytometric analyses of C-peptide versus Glucagon are shown. […] (2011), was modified by omitting the first step, and by adding-secretase inhibitor X (Calbiochem, 2 M) from day 8 to day 12 of differentiation, as well as by adding human insulin (Sigma, 800 pM) and nicotinamide (Sigma, 10 mM) from day 10 and onwards. […] Mouse Wnt3a was supplemented to the step 2 media at 3 ng/ml. From day 10 and onwards, the medium was alternated every day between high dextrose (60 mM) and low dextrose (20 mM). […] Insulin secretion was calculated based on the total cell number and the percentage of c-peptide+ cells of each experiment. […]

[4] = inhibitor of FGF/Ras/MEK pathway added to EP media
[5] = withdrawal of the cytokine, within one week, FIG. 4A
[6] = withdrawal of the cytokine from EP basic media

CCN(CC)CCCCNc1ncc2cc(-c3cc(OC)cc(OC)c3)c(NC(=O)NC(C)(C)C)nc2n1 [PD173074]
proliferation of EP cells (total cell number after 7-day expansion) [1, 4]: reduced proliferation dramatically

O=C(NOC[C@H](O)CO)c1ccc(F)c(F)c1Nc1ccc(I)cc1F [PD0325901]
proliferation of EP cells (total cell number after 7-day expansion) [1, 4]: reduced proliferation dramatically

NC(=O)c1ccc(-c2nc(-c3ccc4c(c3)OCO4)c(-c3ccccn3)[nH]2)cc1 [SB431542]
proliferation of EP cells (relative cell growth over 3 passages) ([1]; SB431542 added to EP media, FIG. 4D): drastically suppressed proliferation | SOX17 expression in EP cells ([2]; EP media supplemented with SB431542, harvested at day 6, FIG. 4C): completely abolished SOX17 expression | differentiation of EP cells into pancreatic β-cells [3]: inhibited differentiation into pancreatic β-cells

BMP4: human cytokine in EP basic medium (50 ng/ml)
PDX1 expression in EP cells [2, 5]: up-regulation of PDX1 | SOX17 expression in EP cells [2, 5]: almost complete loss of SOX17 expression

EGF: human cytokine in EP basic medium (10 ng/ml) (NSDSECPLSHDGYCLHDGVCMYIEALDKYACNCVVGYIGERCQYRDLKWWELR; UniProt P01133 971-1023, looked up)
proliferation of EP cells (total cell number after 7-day expansion) [1, 6]: significant decrease in proliferation

VEGF
proliferation of EP cells (total cell number after 7-day expansion) [1, 6]: significant decrease in proliferation

bFGF: human cytokine in EP basic medium (10 ng/ml)
proliferation of EP cells (total cell number after 7-day expansion) [1, 6]: reduced proliferation dramatically
